Test results: PubChem BioAssay (NCI)
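Method: 48-hour compound exposure of cells in 96-well plates, five concentrations, linear interpolation of endpoints. GI50 = concentration required for 50% inhibition of growth. TGI: total growth inhibition.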

Assays:
Assay in all cases: inhibition of tumour cell growth, NCI panel, 48 h
[1] = tested on: DU-145 prostate
[2] = tested on: HCC-2998 colon
[3] = tested on: HOP-62 NSCLC
[4] = tested on: NCI-H460 lung
[5] = tested on: OVCAR-3 ovarian
[6] = tested on: OVCAR-4 ovarian
[7] = tested on: SF-295 CNS
[8] = tested on: SK-OV-3 ovarian
[9] = tested on: SN12C renal
[10] = tested on: SR leukemia

SMILES	GI50 [1] [µM]	TGI [1] [µM]	GI50 [2] [µM]	TGI [2] [µM]	GI50 [3] [µM]	TGI [3] [µM]	GI50 [4] [µM]	TGI [4] [µM]	GI50 [5] [µM]	TGI [5] [µM]	GI50 [6] [µM]	TGI [6] [µM]	GI50 [7] [µM]	TGI [7] [µM]	GI50 [8] [µM]	TGI [8] [µM]	GI50 [9] [µM]	TGI [9] [µM]	GI50 [10] [µM]	TGI [10] [µM]
Cc1cc(-c2ccccc2)c(C)n1Cc1ccc(Cl)cc1	6.87	> 100	15.1	93.7	6.12	> 100	3.75	> 100	3.54	23.5	9.56	> 100	2.74	9.33	5.92	> 100	5.78	> 100	0.592	26.7
N=C(N)n1[nH]c2c(c1=O)CCC2	–	> 100	–	> 100	–	> 100	–	> 100	–	> 100	–	> 100	–	> 100	–	> 100	–	> 100	–	> 100
COc1ccc(N2CCN(CC(=O)N3CCN(c4nnc(-c5ccccc5)c(-c5ccccc5)n4)CC3)CC2)cc1	16.2	> 100	9.73	> 100	> 67.4	> 100	5.96	> 100	4.92	> 93.4	3.61	> 100	4.15	> 100	> 27.9	> 100	8.64	> 100	2.41	6.97
COc1cc(C(=O)/C=C/c2c(-c3ccc(F)cc3)nc3sccn23)cc(OC)c1OC	2.52	6.64	2.03	3.99	1.96	5.73	1.95	4.51	2.27	6.81	3.27	38.1	2.37	10.6	2.68	11.9	2	15.8	1.41	5.09
COc1cc(/C=C/C(=O)c2c(C)n([O-])c3cc(C)c(C)cc3[n+]2=O)cc(OC)c1OC	13.1	30.8	14.2	32.6	20.2	58.2	10.9	26.3	16.8	41.6	16.5	48	13.2	34.8	32.4	91.9	17.5	42.7	13.4	> 100
CC12C=CC(C)(O1)C1C2c2ccccc2S1(=O)=O (centres undefined)	50.3	> 100	> 100	> 100	> 100	> 100	> 100	> 100	52.7	> 100	31.6	> 100	> 100	> 100	> 100	> 100	64.4	> 100	15.6	> 100
COc1ccc(-c2nnc3n(C)c(=O)c4ccccc4n23)cc1O	2.22	> 100	2.98	97.9	0.176	19.8	0.172	> 100	0.162	12.7	4.32	> 100	1.05	13	1.12	32.9	1.47	> 100	0.1	> 100
COc1ccc(C(=O)Nc2ncc(Cc3ccc(F)cc3)s2)cc1	0.138	> 100	0.163	2.49	0.148	> 56.5	0.0408	> 32.6	0.0346	1.32	1.38	> 100	0.0614	2.03	0.277	> 100	0.0988	> 100	0.0336	> 100
COc1ccc2nc(-c3ccccc3)cc(Nc3ccc(/C(C)=N/O)cc3)c2c1	2.8	> 23	2.19	4.94	2.14	5.06	2.8	> 23.3	2.87	> 100	3.9	> 100	2.21	5.23	2.15	5.22	1.7	3.19	3.82	> 100
Cn1c2ccccc2c2cc(-c3ccccc3)c3c(c21)C(=O)C=CC3=O	–	> 100	–	> 88.9	–	> 76	–	45.5	–	31.7	–	41.3	–	62.4	–	> 100	–	47.2	–	17.5
O=C1C=C(N2CC2)c2ccccc2C1=O	1.34	2.66	1.76	3.86	1.74	3.13	1.71	3.89	1.77	3.27	1.48	2.8	1.63	3.12	1.92	3.41	1.76	3.22	1.21	4.78
O=C1OCC2=C1C(c1cccc(F)c1)c1cc3c(cc1N2CCO)OCCO3 (centres undefined)	0.22	> 50	0.768	> 50	0.31	> 50	0.187	> 50	0.142	–	1.97	> 50	0.134	> 50	0.26	> 50	0.345	> 50	0.078	> 50
O=C(Cc1ccccc1)Nc1nnc(CCSCCc2nnc(NC(=O)Cc3ccccc3)s2)s1	23.8	> 100	89.8	> 100	3.86	19.6	14.5	> 100	6.16	49.2	3.96	32.7	4.38	36.6	18.7	71.3	5.34	44.7	13.9	32.6
OC(COc1ccc(Cl)cc1Cl)CN1CCCC1 (centres undefined)	–	> 100	–	> 100	–	> 100	–	> 100	–	> 100	–	> 100	–	> 100	–	> 100	–	> 100	–	> 100
Cc1cc(C)cc(Nc2nccc(-c3c(-c4ccc(F)cc4)ncn3C3CCNCC3)n2)c1	1.46	3.14	1.28	2.64	2.04	3.95	1.27	2.77	1.39	2.87	1.49	3.46	1.85	3.58	2.13	5.09	1.21	2.59	1.01	3.61
CC1OC(OC2C(OC3C[C@@]4(C)C(C[C@H](O)[C@H]5[C@H](C6(C)CCC(C(C)(C)O)O6)CCC54C)[C@]4(C)CC[C@@H](O)C(C)(C)C34)OC(CO)C(O)C2O)C(O)C(O)C1O (some centres undefined) (tested in a mixture with another compound)	–	> 100	–	> 100	–	> 100	–	> 100	–	> 100	–	> 100	–	> 100	–	> 100	–	> 100	–	> 100
O=C1Nc2ccccc2C12CC(c1ccccc1)=NN2 (centres undefined)	9.63	51.1	36.1	> 100	8.79	> 100	3.94	> 100	5.1	80.7	23.6	> 100	4.84	> 100	9.12	> 100	7.73	> 100	3.64	34.8
c1ccc(Cn2cc3c(c2)-c2oncc2CC3)cc1	0.977	12.8	1.25	4.76	1.28	> 59.4	0.402	7.5	0.457	2.21	3.26	> 66.9	0.818	> 20.6	0.767	26.5	2.26	> 100	0.31	4.34
CN(C)CCCNC(=O)c1cc2c3ccccc3[nH]c2c2ncccc12	19.7	> 100	10.8	23.4	5.99	36.1	6.37	38.6	16.3	54.9	21	81.4	7.49	28	20	> 100	15.6	> 100	14.5	67.1
CC1=CC(=O)c2cccc(NC3=NCCO3)c21	–	> 100	–	> 100	–	> 100	–	> 100	–	90.4	–	> 100	–	> 100	–	> 100	–	> 100	–	91.6
Cc1nc2ccccc2c(=O)n1NC(=O)Cc1ccccc1	–	> 100	–	> 100	–	> 100	–	> 100	–	> 100	–	> 100	–	> 100	–	> 100	–	> 100	–	> 100
O=C(CCCn1ccnc1[N+](=O)[O-])NCCn1cnc([N+](=O)[O-])c1	–	> 100	–	> 100	–	> 100	–	> 100	–	> 100	–	> 100	–	> 100	–	> 100	–	> 100	–	> 100
NC(=O)Nc1ccc2ncnc(Nc3ccc(Cl)cc3)c2c1	4.21	> 100	33.5	> 100	26.7	> 91.9	24.5	> 100	10.4	> 83.4	11.8	> 100	19.2	> 67.4	4.5	34.1	11.4	> 70.7	21.3	75.8
c1ccc(-c2n(Cc3ccc4ccccc4n3)c3ccccc3[n+]2Cc2ccc3ccccc3n2)cc1	0.417	5.55	0.319	1.37	0.446	1.95	0.367	1.36	0.311	1.38	0.238	1.82	0.358	1.39	0.282	1.18	0.302	1.22	0.357	2.42
Cc1cc[c-]cc1.Fc1c[c-]c(-c2ccccn2)c(F)c1.N#CCC[PH+](CCC#N)c1ccccc1.[Pt+2]	2.46	6.22	3.22	10.5	4.93	31.7	3.05	10.1	3.26	13.1	2.97	24.5	3.91	29.8	8.37	> 100	3.17	36.1	2.22	10
COC(=O)[C@]12CC[C@@H](C)[C@H](C)[C@@H]1C1=CC[C@@H]3[C@@]4(C)C(c5ncon5)=C[C@@](C)(CO)C4=CC[C@@]3(C)[C@]1(C)CC2	1.77	3.26	2.14	3.79	2.42	5.08	1.97	3.95	1.79	3.25	3.1	11.8	2.11	5.03	4.49	15.5	3.05	10.6	1.55	4.21
CCOC(=O)Nc1nc2c(F)c(F)c(F)cc2s1	75.1	> 100	> 100	> 100	33.9	> 100	71.9	> 100	75.1	> 100	37.5	> 100	38.8	> 100	45.2	> 100	> 100	> 100	> 100	> 100
